Like-named read-outs stand apart in the source and are kept apart here.
How the values were obtained:
Format in all cases: in vivo, rhesus monkey
[1] = Test for determining the amount of uptake of positron-emitting source compound (PET of brain after intravenous injection); details: for kinetics in the brain: rhesus monkey, intravenous, PET
Experimental: A rhesus monkey (male, 5.5 kg in weight) was fasted overnight prior to the assay date. The monkey was seated on a monkey chair, and its head was fixed in a gantry of an animal PET camera (SHR-7700 manufactured by Hamamatsu Photonics K.K.) by a head positioner. Transmission measurement was performed for 30 minutes for […]. The injection products prepared in Production Examples 1-3 and 2 were then intravenously administered in doses of 77 ng/kg weight in terms of the amount of compound (Ia) and 230 ng/kg weight in terms of the amount of compound (Ib), respectively, and dynamic measurement was performed for 180 minutes. After the obtained images were reconstituted, a region of interest (ROI) was set in each part of the brain, and kinetics of radioactivity was determined in each region.

[2] = test system: α4β2 nicotine receptor; assay: Test for selectivity to α7 nicotine receptor: PET brain uptake after pre-administration of α4β2-selective agonist A85380
Experimental: (§1) After 30 minutes, compound (Ia) or (Ib) was administered by intravenous injection, and dynamic measurement was performed for 91 minutes. After the obtained images were reconstituted, a region of interest (ROI) was set in each part of the brain, and kinetics of radioactivity was determined in each region.

[3] = biological target: T1, α7 nicotine receptor (Macaca mulatta, UniProt Q866A2)
T1 construct: from tissue; host or cells: brain of the living animal (in vivo PET)
Experimental: as §1

T1 sequence (Q866A2 23-502): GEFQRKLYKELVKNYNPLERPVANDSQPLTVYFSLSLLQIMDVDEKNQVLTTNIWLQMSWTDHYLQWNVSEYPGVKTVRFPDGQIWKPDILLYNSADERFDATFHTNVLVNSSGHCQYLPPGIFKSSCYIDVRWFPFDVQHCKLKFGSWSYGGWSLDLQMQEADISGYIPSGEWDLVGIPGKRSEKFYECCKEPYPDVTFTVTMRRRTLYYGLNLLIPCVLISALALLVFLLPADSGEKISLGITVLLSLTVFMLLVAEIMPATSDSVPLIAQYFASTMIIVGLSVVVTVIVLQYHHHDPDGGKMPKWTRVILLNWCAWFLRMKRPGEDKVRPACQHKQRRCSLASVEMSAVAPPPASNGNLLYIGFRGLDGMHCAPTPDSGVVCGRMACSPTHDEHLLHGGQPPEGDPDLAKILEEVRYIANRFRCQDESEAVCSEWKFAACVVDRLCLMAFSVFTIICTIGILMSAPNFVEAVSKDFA

Structure (SMILES) | time of peak value of radioactivity, most/other parts of the brain ([1]; after the administration, brain parts except hippocampus) | time of peak value of radioactivity, hippocampus ([1]; after the administration) [min] | distribution of the concentrated compound in the brain ([1]; integrated images 40 to 60 minutes after the administration) | kinetics in the brain [1] | effect of pre-administered α4β2 nicotine receptor-selective agonist on uptake into each part of the brain ([2]; A85380 5 mg/kg i.v. 30 minutes before the compound) | uptake into each part of the brain after pre-administered α7 nicotine receptor-selective agonist ([3]; SSR180711A 1 or 5 mg/kg i.v. 30 minutes before the compound, depending on the dose of the agonist) | binding selectivity to α7 nicotine receptor ([3]; conclusion from blocking with SSR180711A and A85380) | amount of uptake in the brain ([1]; compared with compound (Ia)) | effect of pre-administered α4β2 nicotine receptor-selective agonist on uptake into each part of the brain ([2]; rhesus monkey, in vivo) | binding selectivity to α7 nicotine receptor ([3]; rhesus monkey, in vivo) | uptake into each part of the brain after pre-administered α7 nicotine receptor-selective agonist ([3]; rhesus monkey, in vivo)
[11CH3]c1ccc(OC(=O)N2CCN3CCC2CC3)cc1 [Compound (Ia), 4-[^11C]methyl-phenyl 1,4-diazabicyclo[3.2.2]nonane-4-carboxylate] | about 10 minutes | 30 | high in hippocampus, corpus striatum, thalamus, cingulate gyrus and cerebral cortex, but low in cerebellum | relatively fast | almost no effect | reduced to the level in the cerebellum | selective binding to α7 nicotine receptor |  |  |  | 
O=C(Oc1ccc([76Br])cc1)N1CCN2CCC1CC2 [Compound (Ib), 4-[^76Br]bromophenyl 1,4-diazabicyclo[3.2.2]nonane-4-carboxylate] |  | 60 |  | generally slow |  |  |  | not as large as that of compound (Ia) | almost no effect | selective binding to α7 nicotine receptor | reduced to the level in the cerebellum
